Measured values: ChEMBL document CHEMBL1909046, “DrugMatrix in vitro pharmacology data”

Legend:
Vasopressin V1a receptor = Vasopressin V1a receptor (Homo sapiens, UniProt P37288); type: cell membranes, Membrane; conditions: hek293; also: in other assays of this panel Not Active means under 50% inhibition at 10 µM
[1] = biological target: T1, Alpha-1B adrenergic receptor (Rattus norvegicus, UniProt P15823); assay: DRUGMATRIX: Alpha-1B adrenergic receptor radioligand binding (ligand: prazosin); type: cell membranes, Wistar, Liver, Membrane; conditions: Not Active = under 50% inhibition at 10 µM
T1 sequence (P15823 whole entry): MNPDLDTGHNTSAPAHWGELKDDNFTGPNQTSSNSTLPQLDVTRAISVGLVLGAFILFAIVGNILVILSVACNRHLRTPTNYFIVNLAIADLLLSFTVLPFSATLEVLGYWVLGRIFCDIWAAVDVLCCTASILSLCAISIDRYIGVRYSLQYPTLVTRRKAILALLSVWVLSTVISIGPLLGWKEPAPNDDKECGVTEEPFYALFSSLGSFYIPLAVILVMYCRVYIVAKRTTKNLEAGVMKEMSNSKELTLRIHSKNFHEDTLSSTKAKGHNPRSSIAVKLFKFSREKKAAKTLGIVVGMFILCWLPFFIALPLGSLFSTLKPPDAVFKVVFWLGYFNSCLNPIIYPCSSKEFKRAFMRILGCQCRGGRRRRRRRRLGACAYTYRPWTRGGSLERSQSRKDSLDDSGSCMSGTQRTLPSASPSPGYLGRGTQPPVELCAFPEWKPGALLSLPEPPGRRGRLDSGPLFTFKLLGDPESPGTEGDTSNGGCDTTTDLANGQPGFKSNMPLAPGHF

Acetylcholinesterase = Acetylcholinesterase (Homo sapiens, UniProt P22303); assay: DRUGMATRIX: Acetylcholinesterase enzyme inhibition (substrate: acetylthiocholine); type: cell-based, HEK293; conditions: hek293; Not Active = under 50% inhibition at 10 µM
Chain of Acetylcholinesterase (P22303 whole entry): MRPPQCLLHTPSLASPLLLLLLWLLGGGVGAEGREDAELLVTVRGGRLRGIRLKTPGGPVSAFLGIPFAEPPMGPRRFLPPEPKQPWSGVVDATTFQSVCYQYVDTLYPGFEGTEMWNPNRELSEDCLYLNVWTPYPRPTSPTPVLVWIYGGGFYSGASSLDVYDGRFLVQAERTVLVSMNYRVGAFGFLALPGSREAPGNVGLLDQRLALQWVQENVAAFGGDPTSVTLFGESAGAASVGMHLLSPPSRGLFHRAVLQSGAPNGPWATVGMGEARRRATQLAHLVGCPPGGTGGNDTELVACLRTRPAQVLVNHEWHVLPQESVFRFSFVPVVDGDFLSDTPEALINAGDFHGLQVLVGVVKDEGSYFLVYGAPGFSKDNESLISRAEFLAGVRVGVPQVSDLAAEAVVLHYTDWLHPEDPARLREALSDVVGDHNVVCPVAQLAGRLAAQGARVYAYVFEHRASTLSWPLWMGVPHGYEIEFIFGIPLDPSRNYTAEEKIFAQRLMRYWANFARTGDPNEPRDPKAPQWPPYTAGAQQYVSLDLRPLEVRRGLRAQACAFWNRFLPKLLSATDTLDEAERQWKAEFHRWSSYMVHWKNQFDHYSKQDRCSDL

Leukotriene C4 synthase = biological target: T2, Leukotriene C4 synthase (Cavia porcellus, UniProt A6XA80); assay: biochemical; type: tissue-based, Lung;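 also: enzyme inhibition assay of leukotriene C4 synthase, using LTA4 as the substrate; in other assays of this panel Not Active means under 50% inhibition at 10 µM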
T2 sequence (A6XA80 whole entry): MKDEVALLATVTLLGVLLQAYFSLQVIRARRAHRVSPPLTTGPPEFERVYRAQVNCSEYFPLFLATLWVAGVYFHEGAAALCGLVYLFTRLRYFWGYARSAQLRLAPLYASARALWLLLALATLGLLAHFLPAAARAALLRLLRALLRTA

[2] = biological target: Voltage-gated inwardly rectifying potassium channel KCNH2 (Homo sapiens, UniProt Q12809); conditions: hek293; also: in other assays of this panel Not Active means under 50% inhibition at 10 µM
Chain of Voltage-gated inwardly rectifying potassium channel KCNH2 (Q12809 whole entry): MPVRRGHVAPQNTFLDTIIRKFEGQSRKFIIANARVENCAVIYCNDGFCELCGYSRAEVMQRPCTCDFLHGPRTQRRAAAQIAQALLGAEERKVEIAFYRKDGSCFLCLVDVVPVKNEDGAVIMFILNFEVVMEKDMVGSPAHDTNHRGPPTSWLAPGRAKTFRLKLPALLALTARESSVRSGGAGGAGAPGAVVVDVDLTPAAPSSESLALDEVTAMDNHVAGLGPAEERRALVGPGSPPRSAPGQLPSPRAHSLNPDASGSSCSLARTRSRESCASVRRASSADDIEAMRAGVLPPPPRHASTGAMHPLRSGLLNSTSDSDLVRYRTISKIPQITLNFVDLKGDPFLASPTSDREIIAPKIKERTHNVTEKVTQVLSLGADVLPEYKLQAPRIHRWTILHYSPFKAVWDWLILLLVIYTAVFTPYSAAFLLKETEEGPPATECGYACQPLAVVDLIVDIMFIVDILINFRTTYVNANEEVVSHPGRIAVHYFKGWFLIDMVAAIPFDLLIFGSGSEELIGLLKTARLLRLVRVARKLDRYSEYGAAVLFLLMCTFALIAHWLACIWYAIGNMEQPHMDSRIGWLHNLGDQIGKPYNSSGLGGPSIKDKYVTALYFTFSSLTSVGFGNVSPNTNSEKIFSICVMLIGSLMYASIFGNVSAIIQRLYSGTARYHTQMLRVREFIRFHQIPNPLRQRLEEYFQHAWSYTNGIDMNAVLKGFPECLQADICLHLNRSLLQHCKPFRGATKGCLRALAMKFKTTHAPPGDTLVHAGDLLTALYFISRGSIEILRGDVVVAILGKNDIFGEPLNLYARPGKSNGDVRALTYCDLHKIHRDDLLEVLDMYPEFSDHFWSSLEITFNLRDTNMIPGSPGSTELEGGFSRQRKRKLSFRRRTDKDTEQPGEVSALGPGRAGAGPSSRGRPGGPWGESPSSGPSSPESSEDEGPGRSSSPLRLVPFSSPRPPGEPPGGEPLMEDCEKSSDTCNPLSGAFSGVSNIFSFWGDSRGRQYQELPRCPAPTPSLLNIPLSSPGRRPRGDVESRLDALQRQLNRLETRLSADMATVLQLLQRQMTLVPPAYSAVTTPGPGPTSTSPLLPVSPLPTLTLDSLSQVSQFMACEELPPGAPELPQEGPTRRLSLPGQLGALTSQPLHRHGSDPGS

[3] = DRUGMATRIX: GABAA, Chloride Channel, TBOB radioligand binding (ligand: [3H] TBOB); type: cell membranes, Rattus norvegicus, Wistar, Cerebral cortex, Membrane; conditions: Not Active = under 50% inhibition at 10 µM
[4] = DRUGMATRIX: Calcium Channel Type L, Dihydropyridine radioligand binding (ligand: [3H] Nitrendipine); type: cell membranes, Rattus norvegicus, Wistar, Cerebral cortex, Membrane; conditions: Not Active = under 50% inhibition at 10 µM
[5] = DRUGMATRIX: Calcium Channel Type L, Benzothiazepine radioligand binding (ligand: [3H] Diltiazem); type: cell membranes, Rattus norvegicus, Wistar, Brain, Membrane; conditions: Not Active = under 50% inhibition at 10 µM
[6] = biological target: C-C chemokine receptor type 2 (Homo sapiens, UniProt P41597); type: cell membranes, CHO-K1, Membrane; conditions: cho-k1; also: in other assays of this panel Not Active means under 50% inhibition at 10 µM
Chain of C-C chemokine receptor type 2 (P41597 whole entry): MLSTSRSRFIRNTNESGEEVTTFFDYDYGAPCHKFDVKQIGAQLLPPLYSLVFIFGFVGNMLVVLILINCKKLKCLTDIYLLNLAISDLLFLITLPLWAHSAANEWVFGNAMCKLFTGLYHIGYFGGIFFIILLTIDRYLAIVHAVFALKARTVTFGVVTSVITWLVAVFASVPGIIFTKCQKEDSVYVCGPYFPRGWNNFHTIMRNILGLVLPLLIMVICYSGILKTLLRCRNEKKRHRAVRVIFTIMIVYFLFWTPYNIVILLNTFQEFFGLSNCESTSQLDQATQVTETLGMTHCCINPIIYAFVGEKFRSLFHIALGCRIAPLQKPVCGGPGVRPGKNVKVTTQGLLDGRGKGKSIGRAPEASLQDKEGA

Cytochrome P450 3A4 = Cytochrome P450 3A4 (Homo sapiens, UniProt P08684); conditions: bti-tn-5b1-4; also: in other assays of this panel Not Active means under 50% inhibition at 10 µM
Chain of Cytochrome P450 3A4 (P08684 whole entry): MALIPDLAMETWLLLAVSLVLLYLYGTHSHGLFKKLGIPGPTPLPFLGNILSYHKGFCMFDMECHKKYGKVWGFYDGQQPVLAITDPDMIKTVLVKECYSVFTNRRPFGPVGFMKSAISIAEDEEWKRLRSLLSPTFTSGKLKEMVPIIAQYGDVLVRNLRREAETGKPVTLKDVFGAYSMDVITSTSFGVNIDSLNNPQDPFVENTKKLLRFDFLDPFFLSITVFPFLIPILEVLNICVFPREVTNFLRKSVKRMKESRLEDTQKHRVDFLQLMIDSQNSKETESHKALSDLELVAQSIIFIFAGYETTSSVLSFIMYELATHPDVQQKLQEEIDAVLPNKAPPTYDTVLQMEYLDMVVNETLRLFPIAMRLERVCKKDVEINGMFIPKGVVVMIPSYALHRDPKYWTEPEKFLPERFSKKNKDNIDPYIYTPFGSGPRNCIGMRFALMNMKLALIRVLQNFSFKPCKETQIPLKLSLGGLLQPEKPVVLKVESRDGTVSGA

[7] = biological target: cGMP-specific 3',5'-cyclic phosphodiesterase (Homo sapiens, UniProt O76074); assay: DRUGMATRIX: Phosphodiesterase PDE5 enzyme inhibition (substrate: [3H]cGMP + cGMP); type: tissue-based, Platelet; conditions: platelet; Not Active = under 50% inhibition at 10 µM
[8] = biological target: T3, 5-hydroxytryptamine receptor 1A (Rattus norvegicus, UniProt P19327); type: cell membranes, CHO-K1, Membrane; conditions: cho-k1; also: in other assays of this panel Not Active means under 50% inhibition at 10 µM
T3 sequence (P19327 whole entry): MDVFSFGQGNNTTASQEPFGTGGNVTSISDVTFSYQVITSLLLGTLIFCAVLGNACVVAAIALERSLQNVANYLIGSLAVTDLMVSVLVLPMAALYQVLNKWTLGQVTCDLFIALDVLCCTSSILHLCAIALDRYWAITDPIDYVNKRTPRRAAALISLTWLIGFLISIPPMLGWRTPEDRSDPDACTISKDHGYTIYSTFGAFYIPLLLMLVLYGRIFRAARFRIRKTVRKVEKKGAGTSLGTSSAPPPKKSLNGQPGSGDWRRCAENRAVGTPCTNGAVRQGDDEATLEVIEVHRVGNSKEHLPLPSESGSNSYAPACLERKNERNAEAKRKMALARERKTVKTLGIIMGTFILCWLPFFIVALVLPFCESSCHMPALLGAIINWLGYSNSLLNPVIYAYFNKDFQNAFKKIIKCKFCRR

[9] = DRUGMATRIX: Serotonin (5-Hydroxytryptamine) 5-HT3 radioligand binding (ligand: [3H] GR-65630); type: cell membranes, Membrane; conditions: hek293; Not Active = under 50% inhibition at 10 µM
[10] = DRUGMATRIX: beta-Lactamase enzyme inhibition (substrate: Nitrocefin); set-up: species or system Bacillus cereus; conditions: Not Active = under 50% inhibition at 10 µM
[11] = DRUGMATRIX: Atrial Natriuretic Factor (ANF) radioligand binding (ligand: [125I] ANF (rat)); type: cell membranes, Cavia porcellus, Dunkin-Hartley, Adrenal gland, Membrane; conditions: Not Active = under 50% inhibition at 10 µM
[12] = biological target: T4, Alpha-2C adrenergic receptor (Homo sapiens, UniProt P18825); assay: DRUGMATRIX: Adrenergic Alpha-2C radioligand binding (ligand: [3H] MK-912); type: cell membranes, Sf9, Membrane; conditions: sf9
T4 sequence (P18825 whole entry): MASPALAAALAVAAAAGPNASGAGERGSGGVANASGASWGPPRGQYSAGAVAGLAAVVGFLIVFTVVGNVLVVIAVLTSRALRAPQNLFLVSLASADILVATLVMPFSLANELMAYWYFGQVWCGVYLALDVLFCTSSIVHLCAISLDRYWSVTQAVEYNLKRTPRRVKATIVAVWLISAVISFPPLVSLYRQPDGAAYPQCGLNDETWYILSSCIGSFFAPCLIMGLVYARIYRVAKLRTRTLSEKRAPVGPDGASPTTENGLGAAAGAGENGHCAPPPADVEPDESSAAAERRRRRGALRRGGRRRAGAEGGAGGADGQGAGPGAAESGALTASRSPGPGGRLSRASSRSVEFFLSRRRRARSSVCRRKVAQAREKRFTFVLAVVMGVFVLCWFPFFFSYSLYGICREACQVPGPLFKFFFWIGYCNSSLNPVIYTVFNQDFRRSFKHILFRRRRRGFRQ

Chain of Vasopressin V1a receptor (P37288 whole entry): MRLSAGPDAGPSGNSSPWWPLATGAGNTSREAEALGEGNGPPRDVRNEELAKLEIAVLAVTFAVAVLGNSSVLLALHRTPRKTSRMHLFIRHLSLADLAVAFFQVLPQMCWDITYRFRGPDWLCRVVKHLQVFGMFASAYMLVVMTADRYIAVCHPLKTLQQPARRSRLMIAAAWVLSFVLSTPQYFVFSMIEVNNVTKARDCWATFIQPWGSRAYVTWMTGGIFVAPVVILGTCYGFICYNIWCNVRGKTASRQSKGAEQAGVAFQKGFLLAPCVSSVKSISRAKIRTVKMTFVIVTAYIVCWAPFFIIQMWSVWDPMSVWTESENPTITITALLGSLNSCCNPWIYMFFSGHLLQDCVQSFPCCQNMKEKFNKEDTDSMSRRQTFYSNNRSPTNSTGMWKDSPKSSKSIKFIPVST

CC(=O)[C@@]1(O)CC[C@H]2[C@@H]3C[C@H](C)C4=CC(=O)C=C[C@]4(C)[C@@]3(F)[C@@H](O)C[C@@]21C [FLUOROMETHOLONE]
Not Active: IC50 (Vasopressin V1a receptor) | IC50 [1] | IC50 (Acetylcholinesterase) | IC50 (Leukotriene C4 synthase) | IC50 [2] | Ki [2] | IC50 [3] | Ki [3] | IC50 [4] | Ki [4] | IC50 [5] | Ki [5] | IC50 [6] | IC50 (Cytochrome P450 3A4) | Ki (Cytochrome P450 3A4) | IC50 [7] | IC50 [8] | IC50 [9] | Ki [9] | IC50 [10] | Ki [10] | IC50 [11] | Ki [11] | IC50 [12]

CCC1(c2ccccc2)C(=O)NCNC1=O [PRIMIDONE]
Not Active: IC50 (Vasopressin V1a receptor) | IC50 [1] | IC50 (Acetylcholinesterase) | IC50 (Leukotriene C4 synthase) | IC50 [2] | Ki [2] | IC50 [3] | Ki [3] | IC50 [4] | Ki [4] | IC50 [5] | Ki [5] | IC50 [6] | IC50 (Cytochrome P450 3A4) | Ki (Cytochrome P450 3A4) | IC50 [7] | IC50 [8] | IC50 [9] | Ki [9] | IC50 [10] | Ki [10] | IC50 [11] | Ki [11] | IC50 [12]

N#C[C@H](O[C@@H]1O[C@H](CO[C@@H]2O[C@H](CO)[C@@H](O)[C@H](O)[C@H]2O)[C@@H](O)[C@H](O)[C@H]1O)c1ccccc1 [AMYGDALIN]
Not Active: IC50 (Vasopressin V1a receptor) | IC50 [1] | IC50 (Acetylcholinesterase) | IC50 (Leukotriene C4 synthase) | IC50 [2] | Ki [2] | IC50 [3] | Ki [3] | IC50 [4] | Ki [4] | IC50 [5] | Ki [5] | IC50 [6] | IC50 (Cytochrome P450 3A4) | Ki (Cytochrome P450 3A4) | IC50 [7] | IC50 [8] | IC50 [9] | Ki [9] | IC50 [10] | Ki [10] | IC50 [11] | Ki [11] | IC50 [12]

CC(C)(Oc1ccc(CCNC(=O)c2ccc(Cl)cc2)cc1)C(=O)O [BEZAFIBRATE]
Not Active: IC50 (Vasopressin V1a receptor) | IC50 [1] | IC50 (Acetylcholinesterase) | IC50 (Leukotriene C4 synthase) | IC50 [2] | Ki [2] | IC50 [3] | Ki [3] | IC50 [4] | Ki [4] | IC50 [5] | Ki [5] | IC50 [6] | IC50 (Cytochrome P450 3A4) | Ki (Cytochrome P450 3A4) | IC50 [7] | IC50 [8] | IC50 [9] | Ki [9] | IC50 [10] | Ki [10] | IC50 [11] | Ki [11] | IC50 [12]

CC=CC(=O)N(CC)c1ccccc1C
Not Active: IC50 (Vasopressin V1a receptor) | IC50 [1] | IC50 (Acetylcholinesterase) | IC50 (Leukotriene C4 synthase) | IC50 [2] | Ki [2] | IC50 [3] | Ki [3] | IC50 [4] | Ki [4] | IC50 [5] | Ki [5] | IC50 [6] | IC50 (Cytochrome P450 3A4) | Ki (Cytochrome P450 3A4) | IC50 [7] | IC50 [8] | IC50 [9] | Ki [9] | IC50 [10] | Ki [10] | IC50 [11] | Ki [11] | IC50 [12]

CC(C)n1c(/C=C/C(O)CC(O)CC(=O)O)c(-c2ccc(F)cc2)c2ccccc21 (stereo not drawn) [FLUVASTATIN]
Not Active: IC50 (Vasopressin V1a receptor) | IC50 [1] | IC50 (Acetylcholinesterase) | IC50 (Leukotriene C4 synthase) | IC50 [2] | Ki [2] | IC50 [3] | Ki [3] | IC50 [4] | Ki [4] | IC50 [5] | Ki [5] | IC50 [6] | IC50 (Cytochrome P450 3A4) | Ki (Cytochrome P450 3A4) | IC50 [7] | IC50 [8] | IC50 [9] | Ki [9] | IC50 [10] | Ki [10] | IC50 [11] | Ki [11] | IC50 [12]

CC(=O)OCC(=O)[C@@]1(OC(C)=O)[C@@H](C)C[C@H]2[C@@H]3C[C@H](F)C4=CC(=O)C=C[C@]4(C)[C@@]3(F)[C@@H](O)C[C@@]21C [DIFLORASONE DIACETATE]
Not Active: IC50 (Vasopressin V1a receptor) | IC50 [1] | IC50 (Acetylcholinesterase) | IC50 (Leukotriene C4 synthase) | IC50 [2] | Ki [2] | IC50 [3] | Ki [3] | IC50 [4] | Ki [4] | IC50 [5] | Ki [5] | IC50 [6] | IC50 (Cytochrome P450 3A4) | Ki (Cytochrome P450 3A4) | IC50 [7] | IC50 [8] | IC50 [9] | Ki [9] | IC50 [10] | Ki [10] | IC50 [11] | Ki [11] | IC50 [12]
